Experimental data: patent publication US11161856B2 (H. Lundbeck A/S, priority 2017, dated 2021)

Legend:
Assay type in all cases: biochemical
MGLL = molecular target: T1, MGLL (Mus musculus, UniProt O35678); assay: In vitro competitive activity-based protein profiling, mouse brain proteome (MGLL); parameters: IC50 MGLL Brain (Mouse, μM): scale not given here; conditions: for % Inh MGLL Brain (Mouse, μM): concentration not given (μM)
T1 construct: Brain; from tissue; host or cells: mouse brain proteome
T1 sequence (O35678 1-303): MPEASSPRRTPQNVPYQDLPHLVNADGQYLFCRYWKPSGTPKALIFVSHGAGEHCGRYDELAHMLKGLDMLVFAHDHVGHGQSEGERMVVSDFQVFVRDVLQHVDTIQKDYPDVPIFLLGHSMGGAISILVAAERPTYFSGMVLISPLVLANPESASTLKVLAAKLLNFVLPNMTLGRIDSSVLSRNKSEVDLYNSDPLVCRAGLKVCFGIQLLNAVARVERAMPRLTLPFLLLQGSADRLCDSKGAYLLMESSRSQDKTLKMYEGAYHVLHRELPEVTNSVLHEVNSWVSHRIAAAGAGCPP

MAGL = molecular target: T2, MAGL (Homo sapiens, UniProt Q99685); assay: In vitro competitive activity-based protein profiling (FP-Rh or HT-01 probe, gel-based); parameters: IC50 MGLL PC3 (Human, μM) / IC50 MGLL PFC (Human, μM): scale not given here; conditions: for IC50 MGLL PC3 (Human, μM) / % Inh MGLL PC3 (Human, μM): PC3 cell proteome; for % Inh MGLL PFC (Human, μM) / % Inh MGLL PC3 (Human, μM): concentration not given (μM)
T2 construct: Proteomes (human prefrontal cortex or cell membrane fractions); from tissue
T2 sequence (Q99685 1-303): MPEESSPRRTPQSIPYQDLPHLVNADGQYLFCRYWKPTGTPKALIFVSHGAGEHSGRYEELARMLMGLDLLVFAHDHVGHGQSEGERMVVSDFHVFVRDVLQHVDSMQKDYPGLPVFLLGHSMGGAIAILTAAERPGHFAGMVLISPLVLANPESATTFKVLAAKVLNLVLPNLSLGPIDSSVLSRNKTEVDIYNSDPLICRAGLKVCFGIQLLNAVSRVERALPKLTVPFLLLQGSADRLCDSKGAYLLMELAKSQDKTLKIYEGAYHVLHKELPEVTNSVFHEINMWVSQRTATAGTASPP
Summary of the method: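 Human prefrontal cortex or cell membrane proteomes (1.0 mg/mL total protein) were preincubated with varying inhibitor concentrations for 30 min at 37° C. FP-Rh or HT-01 probe (50 μM DMSO stock) was then added for 30 min at room temperature, and samples were quenched in SDS loading buffer and resolved by SDS-PAGE.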

ABHD6 = molecular target: T3, ABHD6 (Mus musculus, UniProt Q8R2Y0); assay: In vitro competitive activity-based protein profiling, mouse brain proteome (ABHD6); conditions: mouse brain proteome; concentration not given (μM)
T3 construct: Brain; from tissue; host or cells: mouse brain proteome
T3 sequence (Q8R2Y0 1-336): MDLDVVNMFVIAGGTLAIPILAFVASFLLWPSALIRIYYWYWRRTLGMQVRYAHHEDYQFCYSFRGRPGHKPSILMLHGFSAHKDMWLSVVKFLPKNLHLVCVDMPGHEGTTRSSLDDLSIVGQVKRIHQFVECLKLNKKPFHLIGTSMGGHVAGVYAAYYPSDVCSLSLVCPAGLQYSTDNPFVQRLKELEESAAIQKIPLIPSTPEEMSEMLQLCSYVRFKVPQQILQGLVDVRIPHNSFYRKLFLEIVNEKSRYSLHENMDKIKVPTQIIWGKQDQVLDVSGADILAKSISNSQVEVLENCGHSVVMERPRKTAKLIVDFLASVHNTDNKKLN
Description: [The source words this procedure for another target and reports this target under the same test.] In Vitro Competitive Activity-Based Protein Profiling.
Proteomes (human prefrontal cortex or cell membrane fractions) (50 μL, 1.0 mg/mL total protein concentration) were preincubated with varying concentrations of inhibitors at 37° C. After 30 min, FP-Rh or HT-01 (1.0 μL, 50 μM in DMSO) was added and the mixture was incubated for another 30 min at room temperature. Reactions were quenched with SDS loading buffer (15 μL-4×) and run on SDS-PAGE.

[1] = prefrontal cortex (PFC) proteome

Row | Structure (SMILES) | % Inh MGLL Brain (Mouse, μM) (MGLL) | IC50 MGLL PC3 (Human, μM) (MAGL) | % Inh MGLL PFC (Human, μM) (MAGL; [1]) | % Inh ABHD6 Brain (Mouse, μM) (ABHD6) | % Inh MGLL PC3 (Human, μM) (MAGL) | IC50 MGLL Brain (Mouse, μM) (MGLL) | IC50 MGLL PFC (Human, μM) (MAGL; [1])
1 | CN(Cc1ccc(C(F)(F)F)cc1-c1nnn[nH]1)C1(C)CCN(C(=O)OC(C(F)(F)F)C(F)(F)F)CC1 [Example 24, 1,1,1,3,3,3-Hexafluoropropan-2-yl 4-((2-(1H-tetrazol-5-yl)-4-(trifluoromethyl)benzyl)(methyl)amino)-4-methylpiperidine-1-carboxylate] | ### (### is ≥75%) | * * * | ### (### is ≥75%) | ## (## is between 25 and 75%) | – | – | –
2 | O=C(O)C1COCCN1c1cc(C(F)(F)F)ccc1CN1CC2(CCN(C(=O)OC(C(F)(F)F)C(F)(F)F)CC2)C1 (stereo not shown) [Example 113, 4-(2-((7-(((1,1,1,3,3,3-Hexafluoropropan-2-yl)oxy)carbonyl)-2,7-diazaspiro[3.5]nonan-2-yl)methyl)-5-(trifluoromethyl)phenyl)moiph oline-3-carboxylic acid] | ## (## is between 25 and 75%) | – | # (# is ≤25%) | # (# is ≤25%) | – | – | –
3 | CN(Cc1ccc(C(F)(F)F)cc1OCC(=O)O)C1(C)CCN(C(=O)OC(C(F)(F)F)C(F)(F)F)CC1 [Example 136, 2-(2-(((1-(((1,1,1,3,3,3-Hexafluoropropan-2-yl)oxy)carbonyl)-4-methylpiperidin-4-yl)(methyl)amino)methyl)-5-(trifluoromethyl)phenoxy)acetic acid] | ### (### is ≥75%) | – | – | # (# is ≤25%) | ### (### is ≥75%) | – | –
4 | O=C(O)CN1CC2CC1CN2c1cc(CN2CCC3(CCN(C(=O)OC(C(F)(F)F)C(F)(F)F)CC3)C2)cc(C(F)(F)F)c1 (stereo not shown) [Example 125, 2-(5-{3-[(8-{[(1,1,1,3,3,3-Hexafluoropropan-2-yl)oxy]carbonvl}-2,8-diazaspiro[4.5]decan-2-yl)methyl]-5-(trifluoromethyl)phenyl}-2,5-diazabicyclo[2.2.1]heptan-2-yl)acetic acid] | ### (### is ≥75%) | – | ### (### is ≥75%) | ### (### is ≥75%) | – | – | –
5 | O=C(O)C1CN(c2cc(C(F)(F)F)ccc2CN2CC3(CCN(C(=O)OC(C(F)(F)F)C(F)(F)F)CC3)C2)CCO1 (stereo not shown) [Example 20, 4-(2-((7-(((1,1,1,3,3,3-Hexafluoropropan-2-yl)oxy)carbonyl)-2,7-diazaspiro[3.5]nonan-2-yl)methyl)-5-(trifluoromethyl)phenyl)morpholine-2-carboxylic acid] | ### (### is ≥75%) | * * * | ### (### is ≥75%) | ## (## is between 25 and 75%) | – | * * * | * * *
6 | O=C(O)[C@H]1CCCN(c2cc(C(F)(F)F)ccc2CN2CC3(CCN(C(=O)OC(C(F)(F)F)C(F)(F)F)CC3)C2)C1 [Example 111, (S)-1-(2-((7-(((1,1,1,3,3,3-hexafluoropropan-2-yl)oxy)carbonyl)-2,7-diazaspiro[3,5]nonan-2-yl)methyl)-5-(trifluoromethyl)phenyl) piperidine-3-carboxylic acid] | ### (### is ≥75%) | – | ### (### is ≥75%) | ### (### is ≥75%) | – | – | –
7 | O=C(O)CN1CC2CC1CN2c1cc(CN2CCCC23CCN(C(=O)OC(C(F)(F)F)C(F)(F)F)CC3)cc(C(F)(F)F)c1 (stereo not shown) [Example 128, 2-(5-{3-[(8-{[(1,1,1,3,3,3-Hexafluoropropan-2-yl)oxy]carbonyl}-1,8-diazaspiro[4.5]decan-1-yl)methyl]-5-(trifluoromethyl)phenyl}-2,5-diazabicyclo[2.2.1]heptan-2-yl)acetic acid] | ### (### is ≥75%) | – | ### (### is ≥75%) | # (# is ≤25%) | – | – | –
8 | O=C(O)C1CCN(Cc2cc(C(F)(F)F)ccc2CN2CCC3(CC2)CCN(C(=O)OC(C(F)(F)F)C(F)(F)F)C3)CC1 [Example 220, l-(2-((2-(((1,1,1,3,3,3-Hexafluoropropan-2-yl)oxy)carbonyl)-2,8-diazaspiro[4.5]decan-8-yl)methyl)-5-(trifluoromethyl)benzyl) piperidine-4-carboxylic acid] | ## (## is between 25 and 75%) | – | ## (## is between 25 and 75%) | # (# is ≤25%) | – | – | –
9 | O=C(O)C1CCN(c2cc(C(F)(F)F)ccc2CN2CC3(CCN(C(=O)OC(C(F)(F)F)C(F)(F)F)CC3)C2)CC1 [Example 102, l-(2-((7-(((U,l,3,3,3-Hexafluoropropan-2-yl)oxy)carbonyl)-2,7-diazaspiro[3.5]nonan-2-yl)methyl)-5-(trifluoromethyl)phenyl)piperi-dine-4-carboxylic acid] | ### (### is ≥75%) | – | ### (### is ≥75%) | ### (### is ≥75%) | – | – | –
10 | CC(C)(C#Cc1c(F)cccc1CN1CCCC12CCN(C(=O)OC(C(F)(F)F)C(F)(F)F)CC2)C(=O)O [Example 147, 4-{2-Fluoro-6-[(8-{[(1,1,1,3,3,3-hexafluoropropan-2-yl)oxy]carbonyl}-1,8-diazaspiro[4.5]decan-1-yl)methyl]phenyl}-2,2-dimethylbut-3-ynoic acid] | ### (### is ≥75%) | – | – | # (# is ≤25%) | ### (### is ≥75%) | – | –
11 | O=C(O)C1CCN(Cc2cc(C(F)(F)F)ccc2C(=O)N2CCCC23CCN(C(=O)OC(C(F)(F)F)C(F)(F)F)CC3)CC1 [Example 10, 1-(2-(8-(((1,1,1,3,3,3-Hexafluoropropan-2-yl)oxy)carbonyl)-1,8-diazaspiro[4.5]decane-1-carbonyl)-5-(trifluoromethyl)benzyl)piperidine-4-carboxylic acid] | ### (### is ≥75%) | – | – | # (# is ≤25%) | ### (### is ≥75%) | – | –
12 | O=C(OC(C(F)(F)F)C(F)(F)F)N1CCC2(CCCN2Cc2cc(C(F)(F)F)cc(C3(C(=O)O)CCCC3)c2)CC1 [Example 8, 1-(3-((8-(((1,1,1,3,3,3-Hexafluoropropan-2-yl)oxy)carbonyl)-1,8-diazaspiro[4.5]decan-1-yl)methyl)-5-(trifluoromethyl)phenyl)cyclopentane-1-carboxylic acid] | ### (### is ≥75%) | – | ### (### is ≥75%) | ## (## is between 25 and 75%) | – | – | –
13 | CC(C)(C#Cc1ccccc1CN1CCCC12CCN(C(=O)OC(C(F)(F)F)C(F)(F)F)CC2)C(=O)O [Example 145, 4-{2-[(8-{[(1,1,1,3,3,3-Hexafluoropropan-2-yl)oxy]carbonyl}-1,8-diazaspiro[4.5]decan-1-yl)methyl]phenyl}-2,2-dimethylbut-3-ynoic acid] | ### (### is ≥75%) | – | – | # (# is ≤25%) | ### (### is ≥75%) | – | –
